In patent US12528826B2, “[1,4]oxazepino[2,3-c]quinolinone derivatives as BCL6 inhibitors” (Cancer Research Technology Limited, priority 2019, dated 2026):

What follows are compounds tested against T1, Trx-6×His-BCL6 (human BCL6 BTB domain covering amino-acid sequence 5-129) (Homo sapiens, UniProt P41182) (assay: HTRF assay (BCL6 / BCOR peptide)). Settings: 1 nM Trx-6×His-BCL6, 300 nM BCOR-AF633 peptide, 2 hours incubation at room temperature; read-out: HTRF avg pIC50 (converted).
T1 construct: made in house
Type: binding
Description: After 2 hours incubation at room temperature the plate was read on a Pherastar FSX (BMG Labtech) plate reader equipped with 337 nm laser excitation filter, a first emission filter at 620 nm and a second emission filter at 665 nm. The % inhibition at each concentration was calculated by normalising FRET ratio to the appropriate high (DMSO with all reagents) and low (DMSO without BCL6) controls.

Point of comparison: `CC1CCN(c2ncc(Cl)c(Nc3ccc4c(c3)c3c(c(=O)n4C)OCC(F)(F)[C@H](C4CC4)N3)n2)CC1C` (mixture of isomers) [Example 12x07, (2S)-10-((5-chloro-2-(3,4-dimethylpiperidin-1-yl)pyrimidin-4-yl)amino)-2-cyclopropyl-3,3-difluoro-7-methyl-1,2,3,4-tetrahydro-[1,4]oxazepino[2,3-c]quinolin-6(7H)-one], IC50 46.8 nM. Against it:
- Cn1c(=O)c2c(c3cc(Nc4nc(N5CCC(F)(F)C(C(=O)N6CCC6)C5)ncc4Cl)ccc31)N[C@@H](C1CC1)C(F)(F)CO2 (mixture of isomers) [Example 12x18, (2S)-10-((2-(3-(azetidine-1-carbonyl)-4,4-difluoropiperidin-1-yl)-5-chloropyrimidin-4-yl)amino)-2-cyclopropyl-3,3-difluoro-7-methyl-1,2,3,4-tetrahydro-[1,4]oxazepino[2,3-c]quinolin-6(7H)-one] — 8.5-fold lower, 5.5 nM
- Cn1c(=O)c2c(c3cc(Nc4nc(N5CCC(F)(F)C(C(=O)N6CC(F)(F)C6)C5)ncc4Cl)ccc31)N[C@@H](C1CC1)C(F)(F)CO2 (mixture of isomers) [Example 12x19, (2S)-10-((5-chloro-2-(3-(3,3-difluoroazetidine-1-carbonyl)-4,4-difluoropiperidin-1-yl)pyrimidin-4-yl)amino)-2-cyclopropyl-3,3-difluoro-7-methyl-1,2,3,4-tetrahydro-[1,4]oxazepino[2,3-c]quinolin-6(7H)-one] — 7.9-fold lower, 5.89 nM
- Cn1c(=O)c2c(c3cc(Nc4nc(N5CCC(F)(F)C(CC(=O)N6CC(F)(F)C6)C5)ncc4Cl)ccc31)N[C@@H](C1CC1)C(F)(F)CO2 (mixture of isomers) [Example 12x20, (2S)-10-((5-chloro-2-(3-(2-(3,3-difluoroazetidin-1-yl)-2-oxoethyl)-4,4-difluoropiperidin-1-yl)pyrimidin-4-yl)amino)-2-cyclopropyl-3,3-difluoro-7-methyl-1,2,3,4-tetrahydro-[1,4]oxazepino[2,3-c]quinolin-6(7H)-one] — 13-fold lower, 3.72 nM
- Cn1c(=O)c2c(c3cc(Nc4nc(N5CCC(F)(F)C(CC(=O)N6CCC6)C5)ncc4Cl)ccc31)N[C@@H](C1CC1)C(F)(F)CO2 (mixture of isomers) [Example 12x21, (2S)-10-((2-(3-(2-(azetidin-1-yl)-2-oxoethyl)-4,4-difluoropiperidin-1-yl)-5-chloropyrimidin-4-yl)amino)-2-cyclopropyl-3,3-difluoro-7-methyl-1,2,3,4-tetrahydro-[1,4]oxazepino[2,3-c]quinolin-6(7H)-one] — 13-fold lower, 3.55 nM
- CC1CCN1c1ncc(Cl)c(Nc2ccc3c(c2)c2c(c(=O)n3C)OCC(F)(F)[C@H](C3CC3)N2)n1 (mixture of isomers) [Example 12x36, (2S)-10-((5-chloro-2-(2-methylazetidin-1-yl)pyrimidin-4-yl)amino)-2-cyclopropyl-3,3-difluoro-7-methyl-1,2,3,4-tetrahydro-[1,4]oxazepino[2,3-c]quinolin-6(7H)-one] — 6-fold lower, 7.76 nM
- CC1CCCN(c2ncc(Cl)c(Nc3ccc4c(c3)c3c(c(=O)n4C)OCC(F)(F)[C@H](C4CC4)N3)n2)C1CO (mixture of isomers) [Example 12x46, (2S)-10-((5-chloro-2-(2-(hydroxymethyl)-3-methylpiperidin-1-yl)pyrimidin-4-yl)amino)-2-cyclopropyl-3,3-difluoro-7-methyl-1,2,3,4-tetrahydro-[1,4]oxazepino[2,3-c]quinolin-6(7H)-one] — 4.2-fold lower, 11.2 nM
- Cn1c(=O)c2c(c3cc(Nc4nc(N5CCC(F)(F)CC5CO)ncc4Cl)ccc31)N[C@@H](C1CC1)C(F)(F)CO2 (mixture of isomers) [Example 12x50, (2S)-10-((5-chloro-2-(4,4-difluoro-2-(hydroxymethyl)piperidin-1-yl)pyrimidin-4-yl)amino)-2-cyclopropyl-3,3-difluoro-7-methyl-1,2,3,4-tetrahydro-[1,4]oxazepino[2,3-c]quinolin-6(7H)-one] — 6.6-fold lower, 7.08 nM
- CCNC(=O)[C@@H]1C[C@H](C)CN(c2ncc(Cl)c(Nc3ccc4c(c3)c3c(c(=O)n4C)OCC(F)(F)[C@H](C4CC4)N3)n2)C1 (racemic) [Example 9c, (3R,5S)-1-(5-chloro-4-(((S)-2-cyclopropyl-3,3-difluoro-7-methyl-6-oxo-1,2,3,4,6,7-hexahydro-[1,4]oxazepino[2,3-c]quinolin-10-yl)amino)pyrimidin-2-yl)-N-ethyl-5-methylpiperidine-3-carboxamide; (3S,5R)-1-(5-chloro-4-(((S)-2-cyclopropyl-3,3-difluoro-7-methyl-6-oxo-1,2,3,4,6,7-hexahydro-[1,4]oxazepino[2,3-c]quinolin-10-yl)amino)pyrimidin-2-yl)-N-ethyl-5-methylpiperidine-3-carboxamide] — 13-fold lower, 3.47 nM
- C[C@H]1C[C@@H](CO)CN(c2ncc(Cl)c(Nc3ccc4c(c3)c3c(c(=O)n4C)OCC(F)(F)[C@H](C4CC4)N3)n2)C1 (racemic) [Example 9d, (S)-10-((5-chloro-2-((3R,5S)-3-(hydroxymethyl)-5-methylpiperidin-1-yl)pyrimidin-4-yl)amino)-2-cyclopropyl-3,3-difluoro-7-methyl-1,2,3,4-tetrahydro-[1,4]oxazepino[2,3-c]quinolin-6(7H)-one; (S)-10-((5-chloro-2-((3S,5R)-3-(hydroxymethyl)-5-methylpiperidin-1-yl)pyrimidin-4-yl)amino)-2-cyclopropyl-3,3-difluoro-7-methyl-1,2,3,4-tetrahydro-[1,4]oxazepino[2,3-c]quinolin-6(7H)-one] — 11-fold lower, 4.17 nM
- Cn1c(=O)c2c(c3cc(Nc4nc(N5CCC(F)(F)C(O)C5)ncc4Cl)ccc31)N[C@@H](C1CC1)C(F)(F)CO2 (mixture of isomers) [Example 9e, (S)-10-((5-chloro-2-((R)-4,4-difluoro-3-hydroxypiperidin-1-yl)pyrimidin-4-yl)amino)-2-cyclopropyl-3,3-difluoro-7-methyl-1,2,3,4-tetrahydro-[1,4]oxazepino[2,3-c]quinolin-6(7H)-one; (S)-10-((5-chloro-2-((S)-4,4-difluoro-3-hydroxypiperidin-1-yl)pyrimidin-4-yl)amino)-2-cyclopropyl-3,3-difluoro-7-methyl-1,2,3,4-tetrahydro-[1,4]oxazepino[2,3-c]quinolin-6(7H)-one] — 13-fold lower, 3.72 nM
- Cn1c(=O)c2c(c3cc(Nc4nc(N5CCCC(CF)C5)ncc4Cl)ccc31)N[C@@H](C1CC1)C(F)(F)CO2 (mixture of isomers) [Example 9f, (S)-10-((5-chloro-2-((R)-3-(fluoromethyl)piperidin-1-yl)pyrimidin-4-yl)amino)-2-cyclopropyl-3,3-difluoro-7-methyl-1,2,3,4-tetrahydro-[1,4]oxazepino[2,3-c]quinolin-6(7H)-one; (S)-10-((5-chloro-2-((S)-3-(fluoromethyl)piperidin-1-yl)pyrimidin-4-yl)amino)-2-cyclopropyl-3,3-difluoro-7-methyl-1,2,3,4-tetrahydro-[1,4]oxazepino[2,3-c]quinolin-6(7H)-one] — 4.6-fold lower, 10.2 nM
- Cn1c(=O)c2c(c3cc(Nc4nc(N5CCC(F)(F)C(CC(N)=O)C5)ncc4Cl)ccc31)N[C@@H](C1CC1)C(F)(F)CO2 (mixture of isomers) [Example 9g] — 20-fold lower, 2.29 nM
- CCNC(=O)C1CN(c2ncc(Cl)c(Nc3ccc4c(c3)c3c(c(=O)n4C)OCC(F)(F)[C@H](C4CC4)N3)n2)CCC1(F)F (mixture of isomers) [Example 9j, (R)-1-(5-chloro-4-(((S)-2-cyclopropyl-3,3-difluoro-7-methyl-6-oxo-1,2,3,4,6,7-hexahydro-[1,4]oxazepino[2,3-c]quinolin-10-yl)amino)pyrimidin-2-yl)-N-ethyl-4,4-difluoropiperidine-3-carboxamide; (S)-1-(5-chloro-4-(((S)-2-cyclopropyl-3,3-difluoro-7-methyl-6-oxo-1,2,3,4,6,7-hexahydro-[1,4]oxazepino[2,3-c]quinolin-10-yl)amino)pyrimidin-2-yl)-N-ethyl-4,4-difluoropiperidine-3-carboxamide] — 11-fold lower, 4.17 nM
- CCN(CC1CN(c2ncc(Cl)c(Nc3ccc4c(c3)c3c(c(=O)n4C)OCC(F)(F)[C@H](C4CC4)N3)n2)CCC1(F)F)C(C)=O (mixture of isomers) [Example 9k] — 11-fold lower, 4.27 nM
- Cn1c(=O)c2c(c3cc(Nc4nc(N5CC6CC5CC6(F)F)ncc4Cl)ccc31)N[C@@H](C1CC1)C(F)(F)CO2 (mixture of isomers) [Example 9l, (S)-10-((5-chloro-2-((1R,4R)-5,5-difluoro-2-azabicyclo[2.2.1]heptan-2-yl)pyrimidin-4-yl)amino)-2-cyclopropyl-3,3-difluoro-7-methyl-1,2,3,4-tetrahydro-[1,4]oxazepino[2,3-c]quinolin-6(7H)-one; (S)-10-((5-chloro-2-((1S,4S)-5,5-difluoro-2-azabicyclo[2.2.1]heptan-2-yl)pyrimidin-4-yl)amino)-2-cyclopropyl-3,3-difluoro-7-methyl-1,2,3,4-tetrahydro-[1,4]oxazepino[2,3-c]quinolin-6(7H)-one] — 4-fold lower, 11.7 nM
- CCN1CC2CCC(C1=O)N2c1ncc(Cl)c(Nc2ccc3c(c2)c2c(c(=O)n3C)OCC(F)(F)[C@H](C3CC3)N2)n1 (mixture of isomers) [Example 9r, (S)-10-((5-chloro-2-((1S,5R)-3-ethyl-2-oxo-3,8-diazabicyclo[3.2.1]octan-8-yl)pyrimidin-4-yl)amino)-2-cyclopropyl-3,3-difluoro-7-methyl-1,2,3,4-tetrahydro-[1,4]oxazepino[2,3-c]quinolin-6(7H)-one; (S)-10-((5-chloro-2-((1R,5S)-3-ethyl-2-oxo-3,8-diazabicyclo[3.2.1]octan-8-yl)pyrimidin-4-yl)amino)-2-cyclopropyl-3,3-difluoro-7-methyl-1,2,3,4-tetrahydro-[1,4]oxazepino[2,3-c]quinolin-6(7H)-one] — 13-fold lower, 3.63 nM
